Assay results as given in ChEMBL document CHEMBL1201862, “PubChem BioAssay data set” (2004).
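In this assay, cells in 96-well plates receive the compound at five concentrations for 48 hours. Endpoints are linearly interpolated between the surrounding concentrations. Abbreviation: GI50, concentration required for 50% inhibition of growth.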 Activity calls are given as the source filed them. Rule as the data show it: active = GI50 up to about 1.1 µM and inactive = higher.

Experiments:
Assay in all cases: NCI-60 cell line screen, 48 h
[1] = tested on: NCI-H23
[2] = tested on: UACC-257
[3] = tested on: UACC-62
[4] = tested on: MOLT-4
[5] = tested on: SF-268
[6] = tested on: TK-10
[7] = tested on: OVCAR-5
[8] = tested on: Malme-3M
[9] = tested on: SK-MEL-2
[10] = tested on: ACHN
[11] = tested on: IGROV-1
[12] = tested on: A498
[13] = tested on: NCI-H226
[14] = tested on: SK-MEL-28
[15] = tested on: SK-OV-3
[16] = tested on: SN12C
[17] = tested on: HOP-92
[18] = tested on: OVCAR-8
[19] = tested on: KM12

Measured: GI50

COc1ccc(NC(=O)C(C#N)=C(SC)SC)cc1
inactive: [1] > 100 µM | [2] > 100 µM | [3] > 100 µM | [4] > 100 µM | [5] > 100 µM | [6] > 100 µM | [7] > 100 µM | [8] > 100 µM | [9] > 100 µM | [10] > 100 µM | [11] 58.6 µM | [12] > 100 µM | [13] > 100 µM | [14] > 100 µM | [15] > 100 µM | [16] > 100 µM | [17] 15.8 µM

CC1CC/C(=C\c2ccc(F)cc2)C2=C1C(c1ccc(F)cc1)n1c(s/c(=C\c3ccc(Cl)cc3)c1=O)=N2 (stereo unspecified)
inactive: [2] > 100 µM | [3] > 100 µM | [18] > 100 µM | [19] > 100 µM | [4] > 100 µM | [5] > 100 µM | [6] > 100 µM | [7] > 100 µM | [9] > 100 µM | [10] > 100 µM | [11] > 100 µM | [12] > 100 µM | [14] > 100 µM | [15] > 100 µM | [16] > 100 µM | [17] > 100 µM

CC(=O)Nc1ccc(C2C(C(=O)Nc3ccccc3C)=C(C)NC(C)=C2C(=O)Nc2ccccc2C)cc1
inactive: [1] > 100 µM | [2] 96.6 µM | [3] > 92.3 µM | [18] > 92 µM | [19] > 31.6 µM | [5] > 100 µM | [6] > 100 µM | [7] > 100 µM | [8] > 100 µM | [9] > 100 µM | [10] > 100 µM | [11] > 100 µM | [12] > 100 µM | [13] > 100 µM | [14] > 100 µM | [15] > 100 µM | [16] > 100 µM | [17] > 100 µM

CCN1CCCc2cc3c(C(F)(F)F)cc(=O)oc3cc21
inactive: [1] 57.4 µM | [2] 42.1 µM | [3] > 100 µM | [18] 91.6 µM | [19] > 100 µM | [4] 42.4 µM | [5] > 100 µM | [6] > 100 µM | [7] > 100 µM | [9] > 100 µM | [10] 87.9 µM | [11] > 100 µM | [12] 45.9 µM | [13] 64.6 µM | [14] > 100 µM | [15] > 100 µM | [16] 99.8 µM | [17] 33.3 µM

CC1=C(C(=O)Nc2cccc(C(F)(F)F)c2)C(c2ccc(O)cc2)C(C(=O)Nc2cccc(C(F)(F)F)c2)=C(C)N1
inactive: [1] 16.1 µM | [2] 17.7 µM | [18] 23.2 µM | [19] 15.8 µM | [4] 7.98 µM | [5] 26.5 µM | [6] 26.1 µM | [7] 24.9 µM | [8] 25.8 µM | [9] 17.3 µM | [10] 20.3 µM | [11] 15.6 µM | [12] 17.5 µM | [13] 17.3 µM | [14] 18.7 µM | [15] 19.1 µM | [16] > 10 µM | [17] 11.5 µM

CC1=C(C(=O)NC2CCCCC2)CC(C(=O)NC2CCCCC2)=C(C)N1
inactive: [1] > 100 µM | [2] > 100 µM | [3] > 100 µM | [19] > 100 µM | [4] > 100 µM | [5] 39.9 µM | [6] 39.2 µM | [7] > 100 µM | [8] > 100 µM | [9] > 100 µM | [10] > 100 µM | [11] > 100 µM | [12] 65.9 µM | [14] > 100 µM | [15] > 100 µM | [16] > 100 µM | [17] 33 µM

O=C1NC(=O)C(C(=O)C(=O)Nc2cc(Cl)ccc2Cl)C(=O)N1
inactive: [1] > 100 µM | [2] > 100 µM | [3] > 100 µM | [18] > 100 µM | [19] > 100 µM | [4] > 100 µM | [5] > 100 µM | [6] > 100 µM | [7] > 100 µM | [8] > 100 µM | [9] > 100 µM | [10] > 100 µM | [11] > 100 µM | [12] > 100 µM | [14] > 100 µM | [15] > 100 µM | [17] 91.8 µM

CCC1(CN(C)C)CC/C(=C\c2ccc3c(c2)OCO3)C1=O (stereo unspecified)
inactive: [1] > 100 µM | [2] > 100 µM | [3] > 100 µM | [18] 91.6 µM | [19] > 100 µM | [4] > 100 µM | [5] > 100 µM | [6] > 100 µM | [7] > 100 µM | [8] > 100 µM | [9] > 100 µM | [10] > 100 µM | [11] > 100 µM | [12] > 100 µM | [13] > 100 µM | [14] > 100 µM | [16] > 100 µM | [17] > 100 µM

COC(=O)C1[C@@H](C(=O)OC)C12C=Cc1ccccc1C=C2 (stereo partly specified)
inactive: [1] > 100 µM | [2] > 100 µM | [3] > 100 µM | [18] > 100 µM | [19] > 100 µM | [4] > 100 µM | [5] > 100 µM | [6] > 100 µM | [7] > 100 µM | [8] > 100 µM | [9] > 100 µM | [10] > 100 µM | [11] > 100 µM | [12] 38.5 µM | [14] > 100 µM | [15] > 100 µM | [16] > 100 µM | [17] > 100 µM

CCOC(=O)CCC(NC(=O)c1ccc(NCc2ccc3nc(-c4ccccc4)c(Cl)nc3c2)cc1)C(=O)OCC (stereo unspecified)
inactive: [1] 79.8 µM | [19] > 100 µM | [4] 9.25 µM | [5] 53.8 µM | [6] 83.9 µM | [7] > 100 µM | [8] 13 µM | [9] 10.6 µM | [10] 37.9 µM | [11] 27.9 µM | [12] 24.5 µM | [13] 32.4 µM | [14] > 10 µM | [15] > 100 µM | [16] 41.1 µM | [17] 9.95 µM

NC(CCCC(N)P(=O)(O)c1ccccc1)P(=O)(O)c1ccccc1 (stereo unspecified)
inactive: [1] > 261 µM | [2] > 261 µM | [3] > 261 µM | [18] > 261 µM | [19] > 261 µM | [4] > 261 µM | [5] > 261 µM | [6] > 261 µM | [8] > 261 µM | [9] > 261 µM | [10] > 261 µM | [11] > 261 µM | [12] > 261 µM | [13] > 261 µM | [14] > 261 µM | [15] > 261 µM | [16] > 261 µM | [17] > 261 µM
